The source of these data is patent US4940726A, “Cell growth inhibitory macrocyclic lactones denominated Combretastatin D-1 and Combretastatin D-2” (Arizona Board of Regents, priority 1989, dated 1990).

≈ marks a conversion by molar mass, not a printed value.

This experiment deals with murine P388 lymphocytic leukemia (PS) cell line. As to the kind of experiment: murine P388 lymphocytic leukemia (PS system) cell line growth inhibition, standard National Cancer Institute protocol. Type of experiment: cell-based.

On to `O=C1CCc2ccc(O)c(c2)Oc2ccc(cc2)[C@@H]2O[C@@H]2CO1` (relative stereo) [Combretastatin D-1], for which the IC50 (Mus musculus, P388, murine P388 lymphocytic leukemia (PS system) cell line, read-out: PS cell line activity ED50) is 3.3 µg/mL (≈ 10.6 µM). In the case of `O=C1CCc2ccc(O)c(c2)Oc2ccc(cc2)/C=C\CO1` [Combretastatin D-2], where the note is “murine P388 lymphocytic leukemia (PS system) cell line”, the “PS cell line activity ED50” value came out at 5.2 µg/mL.
